# From publication PMC8484451, “Characterization of fluorescent probe substrates to develop an efficient high-throughput assay for neonatal hepatic CYP3A7 inhibition screening” (Scientific Reports, 2021)
# Experiments:
# [1] = target: T1, CYP3A7 (Homo sapiens, UniProt P24462); assay: Michaelis-Menten kinetics (fluorescence); assay type: biochemical; settings: read-out: DBOMF
# T1 construct: recombinant human CYP3A7 Supersomes (Sf9 insect cell microsomes); with human NADPH-cytochrome P450 reductase and human cytochrome b5 (co-expressed)
# [2] = target: T1, CYP3A7; assay: fluorescent DBF O-debenzylation inhibition assay with recombinant CYP3A7; assay type: biochemical
# [3] = target: T1, CYP3A7; assay: fluorescent DBF inhibition assay at […]; assay type: biochemical; settings: read-out: % inhibition at 20 μM
# [4] = substrate: c1ccc(COc2ccc3cccnc3c2)cc1; assay: Michaelis-Menten kinetics (fluorescence); assay type: biochemical, Homo sapiens; settings: NADPH
# [5] = substrate: O=C(OCc1ccccc1)c1ccccc1-c1c2ccc(=O)cc-2oc2cc(OCc3ccccc3)ccc12; assay: Michaelis-Menten kinetics (fluorescence); metabolites by LC-MS/MS; assay type: biochemical, Homo sapiens; settings: NADPH likely binds in the CYP3A7 active site mirroring native substrates
molecule,measurement,setting,value
"O=C(OCOCc1ccccc1)c1ccccc1-c1c2ccc(=O)cc-2oc2cc(OCOCc3ccccc3)ccc12 [DBOMF, dibenzyloxymethylfluorescein]",Km,[1],1.62 µM
C[C@]12CC[C@H](OS(=O)(=O)O)CC1=CC[C@@H]1[C@@H]2CC[C@]2(C)C(=O)CC[C@@H]12 [DHEA-S],IC50,[2],5.31 µM
CC(C)CN(C[C@@H](O)[C@H](Cc1ccccc1)NC(=O)O[C@H]1CO[C@H]2OCC[C@H]21)S(=O)(=O)c1ccc(N)cc1 [Darunavir],inhibition at 20 µM,[3],> 75%
Cc1c(O)cccc1C(=O)N[C@@H](CSc1ccccc1)[C@H](O)CN1C[C@H]2CCCC[C@H]2C[C@H]1C(=O)NC(C)(C)C [Nelfinavir],inhibition at 20 µM,[3],> 75%
"CYP3A7 (Homo sapiens) (protein, recombinant human CYP3A7 Supersomes (Sf9 insect cell microsomes); with human NADPH-cytochrome P450 reductase and human cytochrome b5 (co-expressed)) MDLIPNLAVETWLLLAVSLILLYLYGTRTHGLFKKLGIPGPTPLPFLGNALSFRKGYWTFDMECYKKYRKVWGIYDCQQPMLAITDPDMIKTVLVKECYSVFTNRRPFGPVGFMKNAISIAEDEEWKRIRSLLSPTFTSGKLKEMVPIIAQYGDVLVRNLRREAETGKPVTLKHVFGAYSMDVITSTSFGVSIDSLNNPQDPFVENTKKLLRFNPLDPFVLSIKVFPFLTPILEALNITVFPRKVISFLTKSVKQIKEGRLKETQKHRVDFLQLMIDSQNSKDSETHKALSDLELMAQSIIFIFAGYETTSSVLSFIIYELATHPDVQQKVQKEIDTVLPNKAPPTYDTVLQLEYLDMVVNETLRLFPVAMRLERVCKKDVEINGMFIPKGVVVMIPSYVLHHDPKYWTEPEKFLPERFSKKNKDNIDPYIYTPFGSGPRNCIGMRFALVNMKLALVRVLQNFSFKPCKETQIPLKLRFGGLLLTEKPIVLKAESRDETVSGA",Km,[4],0.913 µM
same,kcat,[4],0.0217 s⁻¹
same,Km,[5],0.525 µM
same,kcat,[5],0.00247 s⁻¹
